Data reported in US10202361B2, “Pyridazinones as herbicides” (E I DU PONT DE NEMOURS AND COMPANY, priority 2014, dated 2019).

Legend:
Assay type in all cases: in vivo
[1] = tested on: Russian thistle (Salsola kali); test: Test C pre-/postemergence greenhouse herbicide test; details: Preemergence
In short: (§1)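 Seeds sown in loam soil–sand blend were treated preemergence; plants at 2 to 18 cm (1- to 4-leaf stage) in peat-based medium were treated postemergence. Test chemicals were formulated in a non-phytotoxic solvent mixture with surfactant. After 13 to 15 d in greenhouse, injury was rated visually versus controls, 0 (no effect) to 100 (complete control).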

[2] = tested on: bermudagrass (Cynodon dactylon); test: as above
In short: as §1

[3] = tested on: bromegrass, downy (downy bromegrass, Bromus tectorum); test: as above
In short: as §1

[4] = tested on: cocklebur (common cocklebur, Xanthium strumarium); test: as above
In short: as §1

[5] = tested on: cupgrass, woolly (woolly cupgrass, Eriochloa villosa); test: as above
In short: as §1

[6] = tested on: foxtail, green (green foxtail, Setaria viridis); test: as above
In short: as §1

[7] = tested on: goosegrass (Eleusine indica); test: as above
In short: as §1

[8] = tested on: nightshade (eastern black nightshade, Solanum ptycanthum); test: as above; details: Preemergence
In short: as §1

[9] = tested on: sunflower (common oilseed sunflower, Helianthus annuus); test: as above; details: Preemergence
In short: as §1

[10] = tested on: surinam grass (Brachiaria decumbens); test: as above
In short: as §1

[11] = tested on: barley (winter barley, Hordeum vulgare); test: Test C postemergence greenhouse herbicide test
Description: (§2) At the same time, plants selected from these crop and weed species and also barley (winter barley, Hordeum vulgare), canarygrass (Phalaris minor), windgrass (Apera spica-venti), deadnettle (henbit deadnettle, Lamium amplexicaule), and chickweed (common chickweed, Stellaria media) were planted in pots containing Redi-Earth® planting medium (Scotts Company, 14111 Scottslawn Road, Marysville, Ohio 43041) comprising spaghnum peat moss, vermiculite, wetting agent and starter nutrients and treated with postemergence applications of test chemicals formulated in the same manner. Plants ranged in height from 2 to 18 cm (1- to 4-leaf stage) for postemergence treatments. Treated plants and controls were maintained in a greenhouse for 13 to 15 d, after which time all species were compared to controls and visually evaluated. Plant response ratings, summarized in Table C, are based on a scale of 0 to 100 where 0 is no effect and 100 is complete control. A dash (-) response means no test result.

[12] = tested on: canarygrass (Phalaris minor); test: Test C postemergence greenhouse herbicide test
Description: as §2

[13] = tested on: deadnettle (henbit deadnettle, Lamium amplexicaule); test: Test C postemergence greenhouse herbicide test
Description: as §2

[14] = tested on: windgrass (Apera spica-venti); test: Test C postemergence greenhouse herbicide test
Description: as §2

Measured: Plant response rating

Cc1cc(=O)n(-c2ccc(F)cc2)nc1Oc1ccnc(C(F)(F)F)c1 [Compound 14, 2-(4-fluorophenyl)-5-methyl-6-[[2-(trifluoromethyl)-4-pyridinyl]oxy]-3 (2H)-pyridazinone]
15: [2]; Postemergence, 250 g ai/ha | [5]; Postemergence, 62 g ai/ha | [5]; Postemergence, 125 g ai/ha | [7]; Postemergence, 125 g ai/ha | [7]; Postemergence, 250 g ai/ha | [12]; 250 g ai/ha
10: [2]; Postemergence, 62 g ai/ha | [2]; Postemergence, 125 g ai/ha | [6]; Postemergence, 31 g ai/ha | [6]; Postemergence, 62 g ai/ha | [7]; Postemergence, 62 g ai/ha | [9]; 250 g ai/ha | [10]; Postemergence, 62 g ai/ha | [11]; 125 g ai/ha | [12]; 125 g ai/ha
20: [5]; Postemergence, 250 g ai/ha | [10]; Preemergence, 62 g ai/ha | [14]; 31 g ai/ha | [14]; 62 g ai/ha
0: [4]; Preemergence, 31 g ai/ha
65: [5]; Preemergence, 31 g ai/ha
25: [11]; 250 g ai/ha | [14]; 125 g ai/ha
95: [5]; Preemergence, 62 g ai/ha | [6]; Preemergence, 31 g ai/ha | [6]; Preemergence, 62 g ai/ha | [6]; Preemergence, 125 g ai/ha | [6]; Preemergence, 250 g ai/ha
100: [7]; Preemergence, 125 g ai/ha | [7]; Preemergence, 250 g ai/ha | [8]; 250 g ai/ha
98: [2]; Preemergence, 31 g ai/ha | [2]; Preemergence, 62 g ai/ha | [2]; Preemergence, 125 g ai/ha | [2]; Preemergence, 250 g ai/ha | [5]; Preemergence, 125 g ai/ha | [5]; Preemergence, 250 g ai/ha | [6]; Postemergence, 250 g ai/ha | [8]; 31 g ai/ha | [8]; 62 g ai/ha | [8]; 125 g ai/ha
30: [3]; Postemergence, 250 g ai/ha | [3]; Preemergence, 250 g ai/ha | [10]; Postemergence, 125 g ai/ha | [14]; 250 g ai/ha
35: [4]; Postemergence, 31 g ai/ha
85: [1]; 31 g ai/ha | [4]; Postemergence, 250 g ai/ha | [13]; 31 g ai/ha | [13]; 62 g ai/ha | [13]; 125 g ai/ha | [13]; 250 g ai/ha
40: [4]; Postemergence, 62 g ai/ha | [4]; Postemergence, 125 g ai/ha | [6]; Postemergence, 125 g ai/ha
75: [10]; Preemergence, 125 g ai/ha | [10]; Preemergence, 250 g ai/ha
90: [1]; 62 g ai/ha | [1]; 125 g ai/ha | [1]; 250 g ai/ha
45: [7]; Preemergence, 31 g ai/ha | [10]; Postemergence, 250 g ai/ha
5: [2]; Postemergence, 31 g ai/ha | [3]; Postemergence, 31 g ai/ha | [3]; Postemergence, 62 g ai/ha | [3]; Postemergence, 125 g ai/ha | [3]; Preemergence, 31 g ai/ha | [3]; Preemergence, 62 g ai/ha | [3]; Preemergence, 125 g ai/ha | [5]; Postemergence, 31 g ai/ha | [7]; Postemergence, 31 g ai/ha | [9]; 62 g ai/ha | [9]; 125 g ai/ha | [10]; Postemergence, 31 g ai/ha | [11]; 31 g ai/ha | [11]; 62 g ai/ha | [12]; 31 g ai/ha | [12]; 62 g ai/ha
80: [7]; Preemergence, 62 g ai/ha
